These are literature values, as cited in patent US7824714B2, “Chinese herb extract for treating dementia and preparation method thereof” (Development Center for Biotechnology, priority 2008, dated 2010).

In one data set the test system is brain cells. The conditions noted are these: animal experiments.
Data set [1] concerns mice having scopolamine dementia and Aβ dementia.

As for `OC[C@H]1O[C@@H](Oc2c(O)cc(O)cc2C=Cc2ccc(O)cc2)[C@H](O)[C@@H](O)[C@@H]1O` [stilbene glucoside compound, 3,4′,5-trihydroxy-2-stilbenyl beta-D-glucoside], the “damage of brain cells caused by β-amyloid protein and hydrogen peroxide” value in the data set with brain cells is given as “capable of preventing”. Besides, in data set [1], the memory capacity entry is reported as “increasing”.
